Laboratory results: patent publication US20260258032A1, “TYROSINE KINASE 2 INHIBITORS AND USES THEREOF” (BIOGEN MA INC., priority 2022, published 2026)
Counter-ions that a name gives are not always drawn.

Assays:
[1] = tested on: Tyk2 kinase activity on STAT4; test: pSTAT4 cell assay (MSD, NK92 cells); type: cell-based; conditions: compounds 1 hr, stimulated 15 minutes
Description: The inhibitory potency of compounds of the disclosure against the Tyk2 kinase activity on STAT4 was evaluated using an MSD-platform plate-based assay format. NK92 cells natively expressing STAT4 and Tyk2 were serum-starved to reduce background phosphorylation levels, then cells were treated compounds for 1 hr with a 10-point four-fold dilution series starting at 10 μM. Cells were then stimulated with 30 ng/mL IL2 for 15 minutes. Cells were lysed and […] levels were quantitated using an MSD plate-based assay with anti-STAT4 antibodies. The data were normalized and the percent activity versus log concentration of compound were fitted with a 4-parameter logistic model to generate to generate IC50 curves.

JH2 domain of human Tyk2 = target: T1, JH2 domain of human Tyk2 (Homo sapiens, UniProt P29597); test: JH2 biochemical assay (TR-FRET probe displacement); type: binding; conditions: JH2 biochemical assay
T1 construct: 10×His-tagged TYK2 JH2 domain (amino acid 575-876)
Description: The inhibitory potency of compounds of the disclosure against the kinase activity of recombinantly generated JH2 domain of human Tyk2 was evaluated in a plate-based assay using a TR-FRET assay platform. Briefly, 2 nM of recombinant JH2 domain [10×His-tagged TYK2 JH2 domain (amino acid 575-876)] was combined with 2 nM probe ((S)-6-amino-9-(2-carboxy-4-((1-(3-(8-methyl-5-(methylamino)-8H-imidazo[4,5-d]thiazolo[5,4-b]pyridin-2-yl)phenyl)ethyl)carbamoyl)phenyl)-3-iminio-5-sulfo-3H-xanthene-4-sulfonate), 0.1 nM Tb-labeled anti-His antibody, and compounds of disclosure for 60 minutes. Compounds are tested at either […] top concentration, 10 points of 3-fold dilution. The TR-FRET signal […] by compounds and signal was calculated by taking the ratio of fluorescence at 520 nm and 495 nm. The data was normalized and the percent activity versus log concentration of compound was fitted with a 4-parameter logistic model to generate IC50 curves.

T1 sequence (P29597 575-876): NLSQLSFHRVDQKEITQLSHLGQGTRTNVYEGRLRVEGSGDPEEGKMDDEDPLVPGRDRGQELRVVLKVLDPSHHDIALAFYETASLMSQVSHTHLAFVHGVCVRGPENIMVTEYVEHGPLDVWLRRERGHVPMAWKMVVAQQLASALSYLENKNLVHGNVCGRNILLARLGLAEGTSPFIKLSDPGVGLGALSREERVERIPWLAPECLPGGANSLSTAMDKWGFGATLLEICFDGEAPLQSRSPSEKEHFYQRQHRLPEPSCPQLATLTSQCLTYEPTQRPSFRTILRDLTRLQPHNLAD

Compound	IC50 [1]	IC50 (JH2 domain of human Tyk2)
CC(=O)Nc1cc2c(cn1)C1(CC1)CN2c1cc([C@@H]2C[C@H]2C#N)nc(C(C)(F)F)n1 (racemic) [Example 72, trans-rac-N-(1′-(6-(2-cyanocyclopropyl)-2-(1,1-difluoroethyl)pyrimidin-4-yl)-1′,2′-dihydrospiro[cyclopropane-1,3′-pyrrolo[3,2-c]pyridin]-6′-yl)acetamide or cis-rac-N-(1′-(6-(2-cyanocyclopropyl)-2-(1,1-difluoroethyl)pyrimidin-4-yl)-1′,2′-dihydrospiro[cyclopropane-1,3′-pyrrolo[3,2-c]pyridin]-6′-yl)acetamide]	100 to 1000 nM	≤ 10 nM
CC(=O)Nc1cc2c(cn1)C1(CC1)CN2c1cc([C@@H]2C[C@@H]2C#N)nc(C(C)(F)F)n1 (racemic) [Example 73, cis-rac-N-(1′-(6-(2-cyanocyclopropyl)-2-(1,1-difluoroethyl)pyrimidin-4-yl)-1′,2′-dihydrospiro[cyclopropane-1,3′-pyrrolo[3,2-c]pyridin]-6′-yl)acetamide or trans-rac-N-(1′-(6-(2-cyanocyclopropyl)-2-(1,1-difluoroethyl)pyrimidin-4-yl)-1′,2′-dihydrospiro[cyclopropane-1,3′-pyrrolo[3,2-c]pyridin]-6′-yl)acetamide]	10 to 100 nM	≤ 10 nM
COCCOc1cc(N2CC3(CC3)c3cnc(NC(C)=O)cc32)nc(C(C)(F)F)n1 [Example 4, N-(1′-(2-(1,1-difluoroethyl)-6-(2-methoxyethoxy)pyrimidin-4-yl)-1′,2′-dihydrospiro[cyclopropane-1,3′-pyrrolo[3,2-c]pyridin]-6′-yl)acetamide]	100 to 1000 nM	≤ 10 nM
COC1CC(Oc2cc(N3CC4(CC4)c4cnc(NC(C)=O)cc43)nc(C(C)(F)F)n2)C1 (stereo not drawn) [Example 5, N-(1′-(2-(1,1-difluoroethyl)-6-(3-methoxycyclobutoxy)pyrimidin-4-yl)-1′,2′-dihydrospiro[cyclopropane-1,3′-pyrrolo[3,2-c]pyridin]-6′-yl)acetamide]	10 to 100 nM	≤ 10 nM
CC(=O)Nc1cc2c(cn1)C1(CC1)CN2c1cc(OC2CC2)nc(C(C)(F)F)n1 [Example 6, N-(1′-(6-cyclopropoxy-2-(1,1-difluoroethyl)pyrimidin-4-yl)-1′,2′-dihydrospiro[cyclopropane-1,3′-pyrrolo[3,2-c]pyridin]-6′-yl)acetamide]	10 to 100 nM	≤ 10 nM
CC(=O)Nc1cc2c(cn1)C1(CC1)CN2c1ccc(F)c(C(C)(F)F)n1 [Example 7, N-(1′-(6-(1,1-difluoroethyl)-5-fluoropyridin-2-yl)-1′,2′-dihydrospiro[cyclopropane-1,3′-pyrrolo[3,2-c]pyridin]-6′-yl)acetamide]	100 to 1000 nM	≤ 10 nM
COc1ccc(N2CC3(CC3)c3cnc(NC(C)=O)cc32)nc1C(C)(F)F [Example 8, N-(1′-(6-(1,1-difluoroethyl)-5-methoxypyridin-2-yl)-1′,2′-dihydrospiro[cyclopropane-1,3′-pyrrolo[3,2-c]pyridin]-6′-yl)acetamide]	100 to 1000 nM	≤ 10 nM
CC(=O)Nc1cc2c(cn1)C1(CC1)CN2c1cc(N(C)C)nc(C(C)(F)F)n1 [Example 20, N-(1′-(2-(1,1-difluoroethyl)-6-(dimethylamino)pyrimidin-4-yl)-1′,2′-dihydrospiro[cyclopropane-1,3′-pyrrolo[3,2-c]pyridin]-6′-yl)acetamide]	100 to 1000 nM	≤ 10 nM
COC1CC(c2cc(N3CC4(CC4)c4cnc(NC(C)=O)cc43)nc(C(C)(F)F)n2)C1 (stereo not drawn) [Example 23, N-(1′-(2-(1,1-difluoroethyl)-6-(3-methoxycyclobutyl)pyrimidin-4-yl)-1′,2′-dihydrospiro[cyclopropane-1,3′-pyrrolo[3,2-c]pyridin]-6′-yl)acetamid]	10 to 100 nM	≤ 10 nM
CC(=O)Nc1cc2c(cn1)C1(CC1)CN2c1cc(C2CCC2)nc(C(C)(F)F)n1 [Example 24, N-(1′-(6-cyclobutyl-2-(1,1-difluoroethyl)pyrimidin-4-yl)-1′,2′-dihydrospiro[cyclopropane-1,3'-pyrrolo[3,2-c]pyridin]-6'-yl)acetamide]	10 to 100 nM	≤ 10 nM
CC(=O)Nc1cc2c(cn1)C1(CC1)CN2c1cc(C2CCCO2)nc(C(C)(F)F)n1 (stereo not drawn) [Example 26, N-(1′-(2-(1,1-difluoroethyl)-6-(tetrahydrofuran-2-y1)pyrimidin-4-yl)-1′,2′-dihydrospiro[cyclopropane-1,3′-pyrrolo[3,2-c]pyridin]-6′-yl)acetamide]	100 to 1000 nM	≤ 10 nM
CSc1nc(C)cc(N2CC3(CC3)c3cnc(NC(C)=O)cc32)n1 [Example 29, N-(1′-(6-methyl-2-(methylthio)pyrimidin-4-yl)-1′,2′-dihydrospiro[cyclopropane-1,3′-pyrrolo[3,2-c]pyridin]-6′-yl)acetamide]	100 to 1000 nM	≤ 10 nM
CC(=O)Nc1cc2c(cn1)C1(CC1)CN2c1cc(Oc2ccnnc2)nc(C(C)(F)F)n1 [Example 147, N-(1′-(2-(1,1-difluoroethyl)-6-(pyridazin-4-yloxy)pyrimidin-4-yl)-1′,2′-dihydrospiro[cyclopropane-1,3′-pyrrolo[3,2-c]pyridin]-6′-yl)acetamide trifluoroacetate]	≥ 1000 nM	
CC(=O)Nc1cc2c(cn1)C1(CC1)CN2c1cc(NC23CC(C2)C3)nc(C(C)(F)F)n1 [Example 159, N-(1′-(6-(bicyclo[1.1.1]pentan-1-ylamino)-2-(1,1-difluoroethyl)pyrimidin-4-yl)-1′,2′-dihydrospiro[cyclopropane-1,3′-pyrrolo[3,2-c]pyridin]-6′-yl)acetamide trifluoroacetate]	10 to 100 nM	
CC(=O)Nc1cc2c(cn1)C1(CC1)CN2c1cc(C)nc(N2CCC(N(C)C)C2)n1 (stereo not drawn) [Example 215, N-(1′-(2-(3-(dimethylamino)pyrrolidin-1-yl)-6-methylpyrimidin-4-yl)-1′,2′-dihydrospiro[cyclopropane-1,3′-pyrrolo[3,2-c]pyridin]-6′-yl)acetamide]	≥ 1000 nM	
CC(=O)Nc1cc2c(cn1)C1(CC1)CN2c1cc(C)nc(-c2cnn(C3CCC3)c2)n1 [Example 246, N-(1′-(2-(1-cyclobutyl-1H-pyrazol-4-yl)-6-methylpyrimidin-4-yl)-1′,2′-dihydrospiro[cyclopropane-1,3′-pyrrolo[3,2-c]pyridin]-6′-yl)acetamide]	≥ 1000 nM	
CC(=O)Nc1cc2c(cn1)C1(CC1)CN2c1cc(C)nc(-c2cc[nH]n2)n1 [Example 252, N-(1′-(6-methyl-2-(1H-pyrazol-3-yl)pyrimidin-4-yl)-1′,2′-dihydrospiro[cyclopropane-1,3′-pyrrolo[3,2-c]pyridin]-6′-yl)acetamide trifluoroacetate]	100 to 1000 nM	
CC(=O)Nc1cc2c(cn1)C1(CC1)CN2c1cc(C)nc(-c2cnc(C)s2)n1 [Example 255, N-(1′-(6-methyl-2-(2-methylthiazol-5-yl)pyrimidin-4-yl)-1′,2′-dihydrospiro[cyclopropane-1,3′-pyrrolo[3,2-c]pyridin]-6′-yl)acetamide trifluoroacetate]	≥ 1000 nM	
CC(=O)Nc1cc2c(cn1)C1(CC1)CN2c1cc(CCCO)nc(C(C)(F)F)n1 [Example 295, N-(1′-(2-(1,1-difluoroethyl)-6-(3-hydroxypropyl)pyrimidin-4-yl)-1′,2′-dihydrospiro[cyclopropane-1,3′-pyrrolo[3,2-c]pyridin]-6′-yl)acetamide]	10 to 100 nM	
CC(=O)Nc1cc2c(cn1)C1(CC1)CN2c1cc(C(C)C#N)nc(C(C)(F)F)n1 (stereo not drawn) [Example 302, N-(1′-(6-(1-cyanoethyl)-2-(1,1-difluoroethyl)pyrimidin-4-yl)-1′,2′-dihydrospiro[cyclopropane-1,3′-pyrrolo[3,2-c]pyridin]-6′-yl)acetamide]	100 to 1000 nM	
COCCOc1nc(C)cc(N2CC3(CC3)c3cnc(NC(C)=O)cc32)n1 [Example 360, N-(1′-(2-(2-methoxyethoxy)-6-methylpyrimidin-4-yl)-1′,2′-dihydrospiro[cyclopropane-1,3′-pyrrolo[3,2-c]pyridin]-6′-yl)acetamide trifluoroacetate]	≥ 1000 nM	
CC(=O)Nc1cc2c(cn1)C1(CC1)CN2c1cc(C)nc(OC(C)C)n1 [Example 362, N-(1′-(2-isopropoxy-6-methylpyrimidin-4-yl)-1′,2′-dihydrospiro[cyclopropane-1,3′-pyrrolo[3,2-c]pyridin]-6′-yl)acetamide trifluoroacetate]	100 to 1000 nM	
CC(=O)Nc1cc2c(cn1)C1(CC1)CN2c1cc(C)nc(OC2(C)COC2)n1 [Example 365, N-(1′-(6-methyl-2-((3-methyloxetan-3-yl)oxy)pyrimidin-4-yl)-1′,2′-dihydrospiro[cyclopropane-1,3′-pyrrolo[3,2-c]pyridin]-6′-yl)acetamide]	100 to 1000 nM	
CC(=O)Nc1cc2c(cn1)C1(CC1)CN2c1cc(C)nc(OCC2COC2)n1 [Example 366, N-(1′-(6-methyl-2-(oxetan-3-ylmethoxy)pyrimidin-4-yl)-1′,2′-dihydrospiro[cyclopropane-1,3′-pyrrolo[3,2-c]pyridin]-6′-yl)acetamide trifluoroacetate]	100 to 1000 nM	
